Data: patent US11104676B2 (priority 2018, dated 2021)

How the values were obtained:
[1] = biological target: GST-tagged recombinant human TYRO3 kinase domain (Homo sapiens (Human), UniProt Q06418); details: read-out: TYRO3 enzyme IC50
[2] = biological target: His-tagged recombinant human AXL cytoplasmic domain (Homo sapiens (Human), UniProt P30530); details: read-out: AXL enzyme IC50
Method: (§1) Compounds of Formula I were screened for their ability to inhibit AXL kinase using Invitrogen's LanthaScreen™ Eu Kinase Binding technology. […] After a 60-minute incubation at 22° C., the reaction was measured using a PerkinElmer EnVision multimode plate reader via TR-FRET dual wavelength detection, and the percent of control (POC) was calculated using a ratiometric emission factor. […] The POC values are fit to a 4 parameter logistic curve and the IC50 value is point where the curve crosses 50 POC.

[3] = biological target: His-tagged recombinant human MER cytoplasmic domain (Homo sapiens (Human), UniProt Q12866); details: read-out: MER enzyme IC50
Sequence of His-tagged recombinant human MER cytoplasmic domain (Q12866 527-999): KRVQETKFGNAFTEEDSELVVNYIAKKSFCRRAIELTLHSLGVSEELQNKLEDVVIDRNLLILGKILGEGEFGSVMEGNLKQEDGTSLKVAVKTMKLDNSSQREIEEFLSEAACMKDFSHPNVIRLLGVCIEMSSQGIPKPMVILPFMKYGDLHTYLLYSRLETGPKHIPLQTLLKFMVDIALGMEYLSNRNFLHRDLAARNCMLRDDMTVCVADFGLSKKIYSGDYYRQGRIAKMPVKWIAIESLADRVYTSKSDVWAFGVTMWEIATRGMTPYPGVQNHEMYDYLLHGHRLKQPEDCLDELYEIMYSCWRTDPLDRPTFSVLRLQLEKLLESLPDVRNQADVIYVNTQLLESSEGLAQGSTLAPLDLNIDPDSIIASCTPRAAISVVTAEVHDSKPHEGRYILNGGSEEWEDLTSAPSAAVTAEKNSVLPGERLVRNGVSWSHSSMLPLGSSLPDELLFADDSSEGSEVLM
Method: as §1

Sequence of GST-tagged recombinant human TYRO3 kinase domain (Q06418 518-790): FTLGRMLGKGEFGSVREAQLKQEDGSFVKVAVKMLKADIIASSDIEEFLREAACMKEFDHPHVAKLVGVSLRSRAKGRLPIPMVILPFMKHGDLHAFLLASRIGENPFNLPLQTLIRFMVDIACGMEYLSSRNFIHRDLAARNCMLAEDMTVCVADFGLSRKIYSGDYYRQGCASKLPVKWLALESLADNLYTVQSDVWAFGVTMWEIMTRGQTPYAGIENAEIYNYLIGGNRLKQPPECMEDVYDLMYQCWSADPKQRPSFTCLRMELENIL
Sequence of His-tagged recombinant human AXL cytoplasmic domain (P30530 473-894): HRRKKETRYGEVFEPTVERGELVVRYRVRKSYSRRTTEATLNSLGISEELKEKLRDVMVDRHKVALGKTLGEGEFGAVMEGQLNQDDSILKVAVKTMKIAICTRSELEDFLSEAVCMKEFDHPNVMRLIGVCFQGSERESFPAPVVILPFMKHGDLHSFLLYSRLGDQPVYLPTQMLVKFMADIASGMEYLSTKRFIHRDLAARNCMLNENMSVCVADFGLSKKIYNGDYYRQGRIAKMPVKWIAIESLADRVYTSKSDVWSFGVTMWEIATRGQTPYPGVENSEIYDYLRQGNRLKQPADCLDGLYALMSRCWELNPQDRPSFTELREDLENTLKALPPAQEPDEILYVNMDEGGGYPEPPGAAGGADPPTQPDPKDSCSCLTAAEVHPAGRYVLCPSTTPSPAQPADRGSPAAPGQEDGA

Compound `C[C@H](CO)Nc1n[nH]c2nccc(Oc3ccc(NC(=O)C4CC5(CC5)CN(c5ccc(F)cc5)C4=O)cc3F)c12` (stereo partly drawn) [Example 140, N-(3-fluoro-4-((3-(((R)-1-hydroxypropan-2-yl)amino)-1H-pyrazolo[3,4-b]pyridin-4-yl)oxy)phenyl)-5-(4-fluorophenyl)-6-oxo-5-azaspiro[2.5]octane-7-carboxamide] has an IC50 [1] of 1000 nM, an IC50 [2] of 355 nM and an IC50 [3] of 161 nM.
For `C[C@H](CO)Nc1n[nH]c2nccc(Oc3ccc(NC(=O)C4(C)CCCN(c5ccc(F)cc5)C4=O)cc3F)c12` (stereo partly drawn) [Example 141, N-(3-fluoro-4-((3-(((R)-1-hydroxypropan-2-yl)amino)-1H-pyrazolo[3,4-b]pyridin-4-yl)oxy)phenyl)-1-(4-fluorophenyl)-3-methyl-2-oxopiperidine-3-carboxamide], the IC50 [1] was 1000 nM, the IC50 [2] was 485 nM and the IC50 [3] was 178 nM.
In the case of `COC[C@@H](C)Nc1n[nH]c2nccc(Oc3ccc(NC(=O)c4cc(C(C)C)nn(-c5ccc(F)cc5)c4=O)cc3F)c12` [Example 175, (R)-N-(3-fluoro-4-((3-((1-methoxypropan-2-yl)amino)-1H-pyrazolo[3,4-b]pyridin-4-yl)oxy)phenyl)-2-(4-fluorophenyl)-6-isopropyl-3-oxo-2,3-dihydropyridazine-4-carboxamide], the IC50 [1] is reported as 292 nM.
Compound `COC[C@@H](C)Nc1n[nH]c2nccc(Oc3ccc(NC(=O)c4cc(C(C)C)nn(-c5ccc(F)cc5)c4=O)nc3)c12` [Example 176, (R)-2-(4-fluorophenyl)-6-isopropyl-N-(5-((3-((1-methoxypropan-2-yl)amino)-1H-pyrazolo[3,4-b]pyridin-4-yl)oxy)pyridin-2-yl)-3-oxo-2,3-dihydropyridazine-4-carboxamide] has an IC50 [1] of 728 nM.
With `COC[C@@H](C)Nc1n[nH]c2nccc(Oc3ccc(NC(=O)c4cc(C5CC5)cn(-c5ccc(F)cc5)c4=O)nc3)c12` [Example 177, (R)-5-cyclopropyl-1-(4-fluorophenyl)-N-(5-((3-((1-methoxypropan-2-yl)amino)-1H-pyrazolo[3,4-b]pyridin-4-yl)oxy)pyridin-2-yl)-2-oxo-1,2-dihydropyridine-3-carboxamide] the IC50 [1] was 106 nM.
With `COC[C@@H](C)Nc1n[nH]c2nccc(Oc3ccc(NC(=O)c4cc(C)cn(-c5ccc(F)cc5)c4=O)nc3)c12` [Example 178, (R)-1-(4-fluorophenyl)-N-(5-((3-((1-methoxypropan-2-yl)amino)-1H-pyrazolo[3,4-b]pyridin-4-yl)oxy)pyridin-2-yl)-5-methyl-2-oxo-1,2-dihydropyridine-3-carboxamide] the IC50 [1] was 439 nM.
Work on `CC(C)(O)C1(Nc2n[nH]c3nccc(Oc4ccc(NC(=O)c5ccnn(-c6ccc(F)cc6)c5=O)cc4F)c23)CCCC1` [Example 182, N-(3-fluoro-4-((3-((1-(2-hydroxypropan-2-yl)cyclopentyl)amino)-1H-pyrazolo[3,4-b]pyridin-4-yl)oxy)phenyl)-2-(4-fluorophenyl)-3-oxo-2,3-dihydropyridazine-4-carboxamide] yielded an IC50 [1] of 707 nM.
